# Experimental data: PMC4966941 (PLoS ONE, 2016)
# Where a name gives a salt, the structure may show the parent alone.
# How the values were obtained:
# [1] = system: Staphylococcus aureus Xen 36; assay: In-vivo infection prevention study: microbiological analysis of explanted tissue
# Experimental: Bioluminescent strain Staphylococcus aureus Xen 36 (Caliper LifeSciences, Alameda, CA) was used to develop bone infection. The strain was stored in a glycerol (20% v/v) and Brain Heart Infusion (BHI) suspension at -80°C until required. Bacteria were subcultured onto an LB plate (Luria-Bertani, Miller broth mixed with 1.2% (w/v) Technical Agar (Difco, Sparks, MD.)), at 37°C overnight. Five colonies were then transferred to 3 mL LB broth and grown in shaker incubator (200 rpm), at 37°C for 2.5 h. Two milliliters of the bacterial suspension was transferred to 100 mL LB broth and grown for a further 4 h, until the cells reached exponential growth. Bacterial suspension was transferred into 50 mL centrifuge tubes and cells centrifuged at ~3,000 rpm for 30 min. Supernatants were discarded and pellets were re-suspended in 15 mL Phosphate Buffered Saline (PBS). Cells were then mixed by vortexing and the centrifugation process was repeated. This cell washing process was repeated three times. The final washed and pelleted cells were re-suspended in a total of 10 mL PBS, and mixed by vortexing. The cell suspension was then ten-fold serially diluted. The concentration of the cell suspension was then determined using the spread plate technique and spreading 100 μL of the various dilutions onto LB plates, in duplicate. Plates were incubated at 37°C overnight before counting colony forming units (CFU). The viable count was then used to dilute the washed cell suspension to the desired concentrations (i.e., average Log10 7.82 CFU/mL or 6.62x10^7 CFU/mL) using PBS. Two hundred microliter aliquots were dispensed into microfuge tubes and labeled bacterial inoculum. To inoculate the rat tibias the bacterial inoculum was mixed with equal volume of 1% (w/v) molten agarose (Pulsed field certified agarose, Biorad, Hercules, CA). Mixing the bacteria with agarose helped to control seepage of the inoculum and minimize contamination of the surrounding muscle.
# After sacrificing the rats, the tibia and gastrocnemius muscle surrounding the surgical site were explanted, weighed separately and flash frozen with liquid nitrogen prior to pulverizing in a freezer mill (6770 Spex SamplePrep, Metuchen, NJ.). The powdered samples were then re-weighed, suspended (i.e., 1:10) in phosphate buffered saline (PBS), vortexed, and 10-fold serially diluted before plating (in duplicate) 100 μL of suspensions onto LB plates (Luria-Bertani, Miller broth mixed with 1.2% (w/v) Technical Agar (Difco, Sparks, MD.)). Plates were incubated at 37°C for 18–24 h and the bacterial load (colony forming units) per sample was calculated based on the number of colonies seen at specific dilutions. Confirmation of isolating S. aureus Xen 36 colonies from samples was determined using the IVIS (Lumina II, Caliper Life Science, Hopkinton, MA.). Non-bioluminescent colonies were confirmed as S. aureus using Gram staining, catalase test and Color Staph ID kit (Sure-Vue, Fisher Scientific, Houston TX.).
# [2] = system: osteoblast (MC3T3-E1) cells; design: method as in Antoci et al. [39]; conditions: ref Antoci et al. [39]; cited from earlier work
# [3] = patient with normal renal function, intravenous infusion; ref [11], [21]; cited from earlier work
# [4] = system: osteosarcoma cell line MG-63; design: method as in Edin et al. [38]; conditions: MG-63 in vitro; ref Edin et al. [38]; cited from earlier work
# [5] = system: human corneal endothelial cells; design: method as in Yoeruek et al. [40]; conditions: ref Yoeruek et al. [40]; cited from earlier work
# [6] = system: chondrocyte (N1511) cells; design: method as in Antoci et al. [39]; conditions: ref Antoci et al. [39]; cited from earlier work
# [7] = In-vivo pharmacokinetic study: vancomycin in tibia, muscle and plasma after intramedullary delivery (HPLC); conditions: rat; for Mean vancomycin concentration in gastrocnemius muscle (ug drug/g tissue, AVE) / Mean vancomycin concentration in tibia (ug drug/g tissue, AVE): single 25 mg/Kg intramedullary dose to tibia, mean of n = 4; for Vancomycin in muscle, ug drug/g tissue / Vancomycin in plasma: single rat
# [8] = single 25 mg/Kg intramedullary dose, 4 h, HPLC, sample 1-1
# [9] = single 25 mg/Kg intramedullary dose, 4 h, HPLC, sample 1-3
# [10] = single 25 mg/Kg intramedullary dose, 4 h, HPLC, sample 1-4
# [11] = single 25 mg/Kg intramedullary dose, 6 h, HPLC, sample 2-1
# [12] = single 25 mg/Kg intramedullary dose, 6 h, HPLC, sample 2-2
# [13] = single 25 mg/Kg intramedullary dose, 6 h, HPLC, sample 2-3
# [14] = single 25 mg/Kg intramedullary dose, 6 h, HPLC, sample 2-4
# [15] = single 25 mg/Kg intramedullary dose, 12 h, HPLC, sample 3-1
# [16] = single 25 mg/Kg intramedullary dose, 12 h, HPLC, sample 3-2
# [17] = single 25 mg/Kg intramedullary dose, 12 h, HPLC, sample 3-3
# [18] = single 25 mg/Kg intramedullary dose, 12 h, HPLC, sample 3-4
# [19] = single 25 mg/Kg intramedullary dose, 24 h, HPLC, sample 4-1
# [20] = single 25 mg/Kg intramedullary dose, 24 h, HPLC, sample 4-2
# [21] = single 25 mg/Kg intramedullary dose, 24 h, HPLC, sample 4-3
# [22] = single 25 mg/Kg intramedullary dose, 24 h, HPLC, sample 4-4
# [23] = single 25 mg/Kg intramedullary dose, 48 h, HPLC, sample 5-1
# [24] = single 25 mg/Kg intramedullary dose, 48 h, HPLC, sample 5-2
# [25] = single 25 mg/Kg intramedullary dose, 48 h, HPLC, sample 5-4
# [26] = single 25 mg/Kg intramedullary dose, 72 h, HPLC, sample 6-2
# [27] = single 25 mg/Kg intramedullary dose, 72 h, HPLC, sample 6-3
# [28] = single 25 mg/Kg intramedullary dose, 72 h, HPLC, sample 6-4
# [29] = single 25 mg/Kg intramedullary dose, 96 h, HPLC, sample 7-1
# [30] = single 25 mg/Kg intramedullary dose, 96 h, HPLC, sample 7-2
# [31] = single 25 mg/Kg intramedullary dose, 96 h, HPLC, sample 7-3
# [32] = single 25 mg/Kg intramedullary dose, 96 h, HPLC, sample 7-4
# [33] = single 25 mg/Kg intramedullary dose, HPLC
structure (smiles),measurement,setting,value
"CN[C@H](CC(C)C)C(=O)N[C@H]1C(=O)N[C@@H](CC(N)=O)C(=O)N[C@H]2C(=O)N[C@H]3C(=O)N[C@H](C(=O)N[C@H](C(=O)O)c4cc(O)cc(O)c4-c4cc3ccc4O)[C@H](O)c3ccc(c(Cl)c3)Oc3cc2cc(c3O[C@@H]2O[C@H](CO)[C@@H](O)[C@H](O)[C@H]2O[C@H]2C[C@](C)(N)[C@H](O)[C@H](C)O2)Oc2ccc(cc2Cl)[C@H]1O [vancomycin, vancomycin hydrochloride]",Viable bacteria in tibia of treated rats,"[1]; rat tibia inoculated with S. aureus Xen 36, single 25 mg/Kg intramedullary dose, end of 14-day study",< 200 CFU/g
same,Signs of infection around the surgical site,"[1]; rat, S. aureus Xen 36, prophylactic single 25 mg/Kg intramedullary dose, 14 days",no signs of infection
same,Bacteria in the muscle and plasma samples of treated rats,"[1]; rat, S. aureus Xen 36, single 25 mg/Kg intramedullary dose, end of study",No bacteria were detected
same,Ave Log10 CFU/muscle,"[1]; treated rats, explanted muscle at end of 14-day study, mean of n = 9, values of 100 CFU = below detection limit",2.00 Log10 CFU/muscle
same,Ave Log10 CFU/tibia,"[1]; treated rats, explanted tibia at end of 14-day study, mean of n = 9, values of 100 CFU = below detection limit",2.09 Log10 CFU/tibia
same,Log10 CFU/tibia,"[1]; treated, end of study, rat K-11, 2.00 = below detection limit",2.81 Log10 CFU/tibia
same,Doses that severely decreased cellular proliferation,[2],greater than 2 mg/mL
same,Elimination half-life,[3],approximately 6 hours
same,Vancomycin concentration that caused cell death,[4],10 mg/mL
same,Vancomycin concentrations leading to near total destruction,[5],over 10 mg/mL
same,Vancomycin concentrations leading to significant reductions in viability,[5],higher than 5 mg/mL
same,Doses that severely decreased cellular proliferation,[6],greater than 2 mg/mL
same,Therapeutic or supra-therapeutic bone concentrations of vancomycin,[7]; local delivery to the medullary canal,> 100 µg/mL
same,Time the infused drug stays in the bone,[7]; single 25 mg/Kg intramedullary dose,at least 96 hours
same,"Mean vancomycin concentration in gastrocnemius muscle (ug drug/g tissue, AVE)","[7]; 4 h, HPLC",167.793 µg/g
same,"Mean vancomycin concentration in tibia (ug drug/g tissue, AVE)","[7]; 4 h, HPLC",818.068 µg/g
same,"Mean vancomycin concentration in gastrocnemius muscle (ug drug/g tissue, AVE)","[7]; 6 h, HPLC",90.1696 µg/g
same,"Mean vancomycin concentration in tibia (ug drug/g tissue, AVE)","[7]; 6 h, HPLC",784.095 µg/g
same,"Mean vancomycin concentration in gastrocnemius muscle (ug drug/g tissue, AVE)","[7]; 12 h, HPLC",29.0616 µg/g
same,"Mean vancomycin concentration in tibia (ug drug/g tissue, AVE)","[7]; 12 h, HPLC",359.143 µg/g
same,"Mean vancomycin concentration in gastrocnemius muscle (ug drug/g tissue, AVE)","[7]; 24 h, HPLC",0 µg/g
same,"Mean vancomycin concentration in gastrocnemius muscle (ug drug/g tissue, AVE)","[7]; 48 h, HPLC",0.99 µg/g
same,"Mean vancomycin concentration in tibia (ug drug/g tissue, AVE)","[7]; 48 h, HPLC",515.375 µg/g
same,"Mean vancomycin concentration in gastrocnemius muscle (ug drug/g tissue, AVE)","[7]; 72 h, HPLC",0.6895 µg/g
same,"Mean vancomycin concentration in tibia (ug drug/g tissue, AVE)","[7]; 72 h, HPLC",130.325 µg/g
same,"Mean vancomycin concentration in gastrocnemius muscle (ug drug/g tissue, AVE)","[7]; 96 h, HPLC",1.205 µg/g
same,"Mean vancomycin concentration in tibia (ug drug/g tissue, AVE)","[7]; 96 h, HPLC",110.095 µg/g
same,"Vancomycin in muscle, ug drug/g tissue",[7]; [8],0 ug drug/g tissue
same,Vancomycin in plasma,[7]; [8],2.855 µg/mL
same,"Vancomycin in muscle, ug drug/g tissue","[7]; single 25 mg/Kg intramedullary dose, 4 h, HPLC, sample 1-2",0 ug drug/g tissue
same,"Vancomycin in muscle, ug drug/g tissue",[7]; [9],0 ug drug/g tissue
same,Vancomycin in plasma,[7]; [9],2.69 µg/mL
same,"Vancomycin in muscle, ug drug/g tissue",[7]; [10],671.173 ug drug/g tissue
same,Vancomycin in plasma,[7]; [10],8.576 µg/mL
same,"Vancomycin in muscle, ug drug/g tissue",[7]; [11],0 ug drug/g tissue
same,Vancomycin in plasma,[7]; [11],0.1311 µg/mL
same,"Vancomycin in muscle, ug drug/g tissue",[7]; [12],359.037 ug drug/g tissue
same,Vancomycin in plasma,[7]; [12],3.7319 µg/mL
same,"Vancomycin in muscle, ug drug/g tissue",[7]; [13],0 ug drug/g tissue
same,Vancomycin in plasma,[7]; [13],-0.165 µg/mL
same,"Vancomycin in muscle, ug drug/g tissue",[7]; [14],1.642 ug drug/g tissue
same,Vancomycin in plasma,[7]; [14],0.01263 µg/mL
same,"Vancomycin in muscle, ug drug/g tissue",[7]; [15],0 ug drug/g tissue
same,Vancomycin in plasma,[7]; [15],-0.165 µg/mL
same,"Vancomycin in muscle, ug drug/g tissue",[7]; [16],114.004 ug drug/g tissue
same,Vancomycin in plasma,[7]; [16],0.9602 µg/mL
same,"Vancomycin in muscle, ug drug/g tissue",[7]; [17],2.243 ug drug/g tissue
same,Vancomycin in plasma,[7]; [17],1.434 µg/mL
same,"Vancomycin in muscle, ug drug/g tissue",[7]; [18],0 ug drug/g tissue
same,Vancomycin in plasma,[7]; [18],0.747 µg/mL
same,"Vancomycin in muscle, ug drug/g tissue",[7]; [19],0 ug drug/g tissue
same,Vancomycin in plasma,[7]; [19],0.2258 µg/mL
same,"Vancomycin in muscle, ug drug/g tissue",[7]; [20],0 ug drug/g tissue
same,Vancomycin in plasma,[7]; [20],0.9365 µg/mL
same,"Vancomycin in muscle, ug drug/g tissue",[7]; [21],0 ug drug/g tissue
same,Vancomycin in plasma,[7]; [21],0.3917 µg/mL
same,"Vancomycin in muscle, ug drug/g tissue",[7]; [22],0 ug drug/g tissue
same,Vancomycin in plasma,[7]; [22],0.6404 µg/mL
same,"Vancomycin in muscle, ug drug/g tissue",[7]; [23],0 ug drug/g tissue
same,Vancomycin in plasma,[7]; [23],0.8299 µg/mL
same,"Vancomycin in muscle, ug drug/g tissue",[7]; [24],0 ug drug/g tissue
same,Vancomycin in plasma,[7]; [24],0.7352 µg/mL
same,"Vancomycin in muscle, ug drug/g tissue","[7]; single 25 mg/Kg intramedullary dose, 48 h, HPLC, sample 5-3",0 ug drug/g tissue
same,"Vancomycin in muscle, ug drug/g tissue",[7]; [25],3.96 ug drug/g tissue
same,Vancomycin in plasma,[7]; [25],0.593 µg/mL
same,"Vancomycin in muscle, ug drug/g tissue","[7]; single 25 mg/Kg intramedullary dose, 72 h, HPLC, sample 6-1",0 ug drug/g tissue
same,"Vancomycin in muscle, ug drug/g tissue",[7]; [26],0 ug drug/g tissue
same,Vancomycin in plasma,[7]; [26],-0.03475 µg/mL
same,"Vancomycin in muscle, ug drug/g tissue",[7]; [27],2.758 ug drug/g tissue
same,Vancomycin in plasma,[7]; [27],0.04816 µg/mL
same,"Vancomycin in muscle, ug drug/g tissue",[7]; [28],0 ug drug/g tissue
same,Vancomycin in plasma,[7]; [28],0.2495 µg/mL
same,"Vancomycin in muscle, ug drug/g tissue",[7]; [29],0 ug drug/g tissue
same,Vancomycin in plasma,[7]; [29],-0.165 µg/mL
same,"Vancomycin in muscle, ug drug/g tissue",[7]; [30],0 ug drug/g tissue
same,Vancomycin in plasma,[7]; [30],-0.165 µg/mL
same,"Vancomycin in muscle, ug drug/g tissue",[7]; [31],4.819 ug drug/g tissue
same,Vancomycin in plasma,[7]; [31],-0.165 µg/mL
same,"Vancomycin in muscle, ug drug/g tissue",[7]; [32],0 ug drug/g tissue
same,Vancomycin in plasma,[7]; [32],-0.165 µg/mL
same,"Vancomycin concentration in the gastrocnemius muscle, first 4h post administration",[7]; [33],> 100 µg/g
same,Vancomycin level in the gastrocnemius muscle by 24h,[7]; [33],near undetectable levels
same,Vancomycin concentration detected in the tibia over the 96-h study period,"[7]; single 25 mg/Kg intramedullary dose, HPLC of pulverized tissue",> 100 µg/g
same,Vancomycin detected in the blood plasma for the entirety of the study,"[7]; single 25 mg/Kg intramedullary dose, HPLC, 96 h study",Little to no vancomycin was detected
same,Time a supratherapeutic antimicrobial dose (>100 μg/mL) was maintained in the surrounding muscle,"[7]; single 25 mg/Kg intramedullary dose, n = 4 per time point",< 6 h
